Measurements: ChEMBL document CHEMBL1201862, “PubChem BioAssay data set” (2004)
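Cultured in 96-well plates, cells were exposed to test compound for 48 hours across five concentrations. GI50 is the concentration that inhibits growth by half.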 The source made the active and inactive calls. No stated cut-off is given here; in the data, active = GI50 up to about 1.1 µM and inactive = higher. Where a SMILES comes first, the peptide text is derived from it. [ ]: non-standard residue; d: D form. The star is where a group is joined. NMeF = CN[CH](Cc1ccccc1)C(=O)O; NMeV = CN[CH](C(=O)O)C(C)C; Boc = CC(C)(C)OC(=O)*; OBn = c1ccc(CO*)cc1

What was measured:
Assay in all cases: NCI anticancer screen, dose series, 48 h
HOP-92 = system: HOP-92
OVCAR-3 = system: OVCAR-3
RXF 393 = system: RXF 393
MOLT-4 = system: MOLT-4
CCRF-CEM = system: CCRF-CEM
OVCAR-8 = system: OVCAR-8
UACC-62 = system: UACC-62
RPMI-8226 = system: RPMI-8226
HT-29 = system: HT-29
SNB-19 = system: SNB-19
NCI-H23 = system: NCI-H23
IGROV-1 = system: IGROV-1
LOX IMVI = system: LOX IMVI
M14 = system: M14
UO-31 = system: UO-31
COLO 205 = system: COLO 205
NCI-H226 = system: NCI-H226
TK-10 = system: TK-10

Measured: GI50

N=C(N)NS(=O)(=O)c1ccc(NC(=O)c2ccc(Cl)c3c(Nc4ccc(S(=O)(=O)N=C(N)N)cc4)c4ccccc4nc23)cc1
inactive: HOP-92 28.2 µM | OVCAR-3 32.2 µM | RXF 393 > 100 µM | MOLT-4 > 100 µM | CCRF-CEM 43.1 µM | OVCAR-8 > 100 µM | UACC-62 37.5 µM | RPMI-8226 85.1 µM | HT-29 > 100 µM | SNB-19 53.3 µM | NCI-H23 > 100 µM | IGROV-1 76.4 µM | LOX IMVI 50.9 µM | M14 > 100 µM | UO-31 83.9 µM | COLO 205 91.4 µM

COc1ccc(NC(=O)CC2SC(Nc3ccc(Cl)cc3C)=NC2=O)c([N+](=O)[O-])c1 (centres undefined)
inactive: HOP-92 > 100 µM | OVCAR-3 > 100 µM | RXF 393 > 100 µM | MOLT-4 > 100 µM | CCRF-CEM > 100 µM | OVCAR-8 > 100 µM | UACC-62 > 100 µM | RPMI-8226 > 100 µM | HT-29 > 100 µM | NCI-H226 > 100 µM | SNB-19 > 100 µM | TK-10 > 100 µM | NCI-H23 > 100 µM | IGROV-1 > 100 µM | LOX IMVI > 100 µM | M14 > 100 µM | UO-31 > 100 µM

c1ccc(CNn2nnc3ccccc32)cc1
inactive: HOP-92 > 100 µM | OVCAR-3 > 100 µM | RXF 393 > 100 µM | MOLT-4 > 100 µM | CCRF-CEM > 100 µM | OVCAR-8 > 100 µM | UACC-62 > 100 µM | RPMI-8226 > 100 µM | HT-29 > 100 µM | SNB-19 > 100 µM | TK-10 > 100 µM | NCI-H23 > 100 µM | IGROV-1 > 100 µM | LOX IMVI > 100 µM | M14 > 100 µM | UO-31 > 100 µM | COLO 205 > 100 µM

CC(C)OP(=O)(OC(C)C)/C(=N/Nc1ccccc1[N+](=O)[O-])NCCN/C(=N\Nc1ccccc1[N+](=O)[O-])P(=O)(OC(C)C)OC(C)C
inactive: HOP-92 32 µM | OVCAR-3 42.7 µM | MOLT-4 43.2 µM | CCRF-CEM 22.2 µM | OVCAR-8 39.5 µM | UACC-62 19.2 µM | RPMI-8226 28.2 µM | NCI-H226 24.4 µM | SNB-19 38 µM | TK-10 39.1 µM | NCI-H23 14.5 µM | IGROV-1 27.9 µM | LOX IMVI 30.2 µM | M14 36.1 µM | UO-31 29.3 µM | COLO 205 25.2 µM

COc1ccc([C@@H]2CC(=O)NCCCNCCCCNCCCN2)cc1
inactive: HOP-92 > 100 µM | RXF 393 > 100 µM | MOLT-4 > 100 µM | CCRF-CEM > 100 µM | OVCAR-8 > 100 µM | UACC-62 > 100 µM | RPMI-8226 > 100 µM | HT-29 > 100 µM | NCI-H226 79.6 µM | SNB-19 > 100 µM | TK-10 > 100 µM | NCI-H23 > 100 µM | IGROV-1 > 100 µM | M14 > 100 µM | UO-31 > 100 µM | COLO 205 > 100 µM

Cc1cn(C2OC(C)(CO)C(O)C2O)c(=O)[nH]c1=O (centres undefined)
inactive: HOP-92 > 100 µM | OVCAR-3 > 100 µM | RXF 393 > 100 µM | MOLT-4 > 100 µM | CCRF-CEM > 100 µM | OVCAR-8 > 100 µM | UACC-62 > 100 µM | RPMI-8226 > 100 µM | HT-29 > 100 µM | SNB-19 > 100 µM | TK-10 > 100 µM | NCI-H23 > 100 µM | IGROV-1 > 100 µM | LOX IMVI > 100 µM | M14 > 100 µM | UO-31 > 100 µM | COLO 205 > 100 µM

O=C(O)c1ccc(C2C3C=CC(C3)C2[N+](=O)[O-])cc1 (centres undefined)
inactive: OVCAR-3 > 100 µM | RXF 393 > 100 µM | MOLT-4 > 100 µM | CCRF-CEM > 100 µM | OVCAR-8 > 100 µM | UACC-62 > 100 µM | RPMI-8226 > 100 µM | HT-29 > 100 µM | NCI-H226 > 100 µM | SNB-19 > 100 µM | TK-10 > 100 µM | NCI-H23 > 100 µM | IGROV-1 > 100 µM | LOX IMVI > 100 µM | M14 > 100 µM | UO-31 > 100 µM | COLO 205 > 100 µM

COc1ccc2nc3ccc(OC)cc3c(SCc3ccc([N+](=O)[O-])cc3)c2c1
inactive: HOP-92 > 100 µM | OVCAR-3 63 µM | RXF 393 > 100 µM | MOLT-4 > 100 µM | CCRF-CEM > 100 µM | OVCAR-8 52.7 µM | UACC-62 > 100 µM | HT-29 24.1 µM | NCI-H226 42.8 µM | SNB-19 > 100 µM | TK-10 34 µM | NCI-H23 50 µM | IGROV-1 63.5 µM | LOX IMVI > 100 µM | M14 > 100 µM | UO-31 > 100 µM | COLO 205 > 100 µM

CC(C)(CN1CCCCC1)C(=O)CC(SCCN)c1ccc(Cl)cc1 (centres undefined)
inactive: OVCAR-3 1.55 µM | RXF 393 1.81 µM | MOLT-4 1.72 µM | CCRF-CEM 1.55 µM | OVCAR-8 2.04 µM | UACC-62 1.65 µM | RPMI-8226 1.38 µM | HT-29 1.95 µM | NCI-H226 3.52 µM | SNB-19 1.78 µM | TK-10 2.26 µM | NCI-H23 1.95 µM | IGROV-1 2.7 µM | LOX IMVI 2.09 µM | M14 1.82 µM | UO-31 3.35 µM | COLO 205 1.6 µM

CC(=O)O[C@]12CCCC1C1(O)C(O)CCCC12 (some centres undefined)
inactive: RXF 393 > 100 µM | MOLT-4 > 100 µM | CCRF-CEM > 100 µM | OVCAR-8 > 100 µM | UACC-62 > 100 µM | RPMI-8226 > 100 µM | HT-29 > 100 µM | NCI-H226 > 100 µM | SNB-19 > 100 µM | TK-10 > 100 µM | NCI-H23 > 100 µM | LOX IMVI > 100 µM | M14 > 100 µM | UO-31 > 100 µM | COLO 205 > 100 µM

O=C1C2c3[nH]c4ccccc4c3C3CCCCC3C2C(=O)N1c1ccccc1 (centres undefined)
inactive: OVCAR-3 73.6 µM | RXF 393 19.6 µM | MOLT-4 64.7 µM | CCRF-CEM 85.1 µM | OVCAR-8 > 100 µM | UACC-62 > 100 µM | RPMI-8226 > 100 µM | HT-29 > 100 µM | NCI-H226 > 100 µM | SNB-19 84.1 µM | TK-10 46.5 µM | NCI-H23 > 100 µM | IGROV-1 72.1 µM | LOX IMVI > 100 µM | M14 36.6 µM | UO-31 > 100 µM | COLO 205 > 100 µM

Clc1cc(Cl)c2n[se]nc2c1
inactive: RXF 393 > 100 µM | MOLT-4 > 100 µM | CCRF-CEM > 100 µM | OVCAR-8 > 100 µM | UACC-62 > 100 µM | RPMI-8226 > 100 µM | HT-29 > 100 µM | SNB-19 > 100 µM | TK-10 38.3 µM | NCI-H23 > 100 µM | IGROV-1 > 100 µM | LOX IMVI 69.7 µM | M14 > 100 µM | UO-31 > 100 µM

Cc1nc(-c2cccnc2)sc1C(=O)/C=C/c1ccc(Cl)cc1Cl
inactive: HOP-92 > 100 µM | OVCAR-3 > 100 µM | RXF 393 53.8 µM | MOLT-4 73.6 µM | CCRF-CEM 47.5 µM | OVCAR-8 > 100 µM | UACC-62 83.9 µM | RPMI-8226 31.5 µM | HT-29 > 100 µM | NCI-H226 > 100 µM | TK-10 > 100 µM | NCI-H23 > 100 µM | IGROV-1 > 100 µM | LOX IMVI 95.3 µM | UO-31 > 100 µM | COLO 205 > 100 µM

COC1=C2C[C@H](O)C(C)C[C@@]2(OC)OC1=O (some centres undefined)
inactive: HOP-92 > 100 µM | OVCAR-3 > 100 µM | RXF 393 > 100 µM | MOLT-4 > 100 µM | CCRF-CEM > 100 µM | UACC-62 > 100 µM | RPMI-8226 > 100 µM | HT-29 > 100 µM | SNB-19 > 100 µM | NCI-H23 > 100 µM | IGROV-1 > 100 µM | LOX IMVI > 100 µM | M14 > 100 µM | UO-31 > 100 µM | COLO 205 > 100 µM

O=c1ncccn1C1OC(CO)C(O)C1O (centres undefined)
inactive: HOP-92 > 100 µM | RXF 393 > 100 µM | CCRF-CEM > 100 µM | OVCAR-8 > 100 µM | UACC-62 > 100 µM | RPMI-8226 > 100 µM | HT-29 > 100 µM | NCI-H226 > 100 µM | SNB-19 91.8 µM | TK-10 > 100 µM | NCI-H23 > 100 µM | IGROV-1 > 100 µM | LOX IMVI > 100 µM | M14 > 100 µM | UO-31 > 100 µM | COLO 205 > 100 µM

CC(C)C(NC(=O)OC(C)(C)C)C(=O)N(C)C(Cc1ccccc1)C(=O)N(C)C(C(=O)N(C)C(C(=O)OCc1ccccc1)C(C)C)C(C)C (centres undefined) (Boc-V[NMeF][NMeV][NMeV]-OBn; configuration not given here)
inactive: OVCAR-3 > 100 µM | MOLT-4 4.81 µM | CCRF-CEM 48.5 µM | OVCAR-8 > 100 µM | UACC-62 > 100 µM | RPMI-8226 10.3 µM | HT-29 20.2 µM | NCI-H226 > 100 µM | SNB-19 > 100 µM | TK-10 > 100 µM | NCI-H23 > 100 µM | IGROV-1 > 100 µM | LOX IMVI > 100 µM | M14 62.8 µM | UO-31 > 100 µM | COLO 205 > 100 µM
